Columns and labels:
[1] = target: T1, Protein kinase C beta type (Homo sapiens, UniProt P05771); assay: Inhibition of Protein kinase C beta 1
[2] = target: Protein kinase C alpha type (Homo sapiens, UniProt P17252); assay: Inhibition of Protein kinase C alpha
[3] = target: Protein kinase C delta type (Homo sapiens, UniProt Q05655); assay: Inhibition of Protein kinase C delta
[4] = target: T2, Protein kinase C epsilon type (Homo sapiens, UniProt Q02156); assay: Inhibition of Protein kinase C epsilon
T2 sequence (Q02156 whole entry): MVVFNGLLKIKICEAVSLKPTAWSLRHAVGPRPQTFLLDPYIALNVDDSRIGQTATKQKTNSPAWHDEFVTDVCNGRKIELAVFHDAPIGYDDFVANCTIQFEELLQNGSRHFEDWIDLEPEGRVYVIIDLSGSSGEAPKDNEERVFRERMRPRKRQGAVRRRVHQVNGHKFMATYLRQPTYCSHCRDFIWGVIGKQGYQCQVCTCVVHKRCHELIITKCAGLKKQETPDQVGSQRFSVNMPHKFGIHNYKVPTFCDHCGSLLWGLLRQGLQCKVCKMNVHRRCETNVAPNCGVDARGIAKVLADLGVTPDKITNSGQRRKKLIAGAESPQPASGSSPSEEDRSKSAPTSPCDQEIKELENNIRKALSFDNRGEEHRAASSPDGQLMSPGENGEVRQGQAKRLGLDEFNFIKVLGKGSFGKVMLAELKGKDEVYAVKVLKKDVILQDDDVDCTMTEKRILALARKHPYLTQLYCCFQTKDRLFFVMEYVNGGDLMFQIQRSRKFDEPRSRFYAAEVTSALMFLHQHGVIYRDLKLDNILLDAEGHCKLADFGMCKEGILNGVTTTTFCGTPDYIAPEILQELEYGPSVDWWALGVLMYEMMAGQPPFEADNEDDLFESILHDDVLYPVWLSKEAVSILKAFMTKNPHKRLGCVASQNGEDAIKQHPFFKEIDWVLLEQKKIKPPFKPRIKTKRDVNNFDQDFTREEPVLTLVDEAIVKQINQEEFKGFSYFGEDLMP

[5] = target: cAMP-dependent protein kinase (PKA) (Homo sapiens, UniProt P22694+P17612+P22612); assay: Inhibition of Protein Kinase A; format: protein assay
[6] = target: Protein kinase C eta type (Homo sapiens, UniProt P24723); assay: Inhibition of Protein kinase C eta
[7] = target: Protein kinase C gamma type (Homo sapiens, UniProt P05129); assay: Inhibition Protein kinase C gamma
[8] = target: T1, Protein kinase C beta type; assay: Inhibition of Protein kinase C beta 2
[9] = target: T3, Protein kinase C zeta type (Homo sapiens, UniProt Q05513); assay: Inhibition of Protein kinase C zeta
T3 sequence (Q05513 whole entry): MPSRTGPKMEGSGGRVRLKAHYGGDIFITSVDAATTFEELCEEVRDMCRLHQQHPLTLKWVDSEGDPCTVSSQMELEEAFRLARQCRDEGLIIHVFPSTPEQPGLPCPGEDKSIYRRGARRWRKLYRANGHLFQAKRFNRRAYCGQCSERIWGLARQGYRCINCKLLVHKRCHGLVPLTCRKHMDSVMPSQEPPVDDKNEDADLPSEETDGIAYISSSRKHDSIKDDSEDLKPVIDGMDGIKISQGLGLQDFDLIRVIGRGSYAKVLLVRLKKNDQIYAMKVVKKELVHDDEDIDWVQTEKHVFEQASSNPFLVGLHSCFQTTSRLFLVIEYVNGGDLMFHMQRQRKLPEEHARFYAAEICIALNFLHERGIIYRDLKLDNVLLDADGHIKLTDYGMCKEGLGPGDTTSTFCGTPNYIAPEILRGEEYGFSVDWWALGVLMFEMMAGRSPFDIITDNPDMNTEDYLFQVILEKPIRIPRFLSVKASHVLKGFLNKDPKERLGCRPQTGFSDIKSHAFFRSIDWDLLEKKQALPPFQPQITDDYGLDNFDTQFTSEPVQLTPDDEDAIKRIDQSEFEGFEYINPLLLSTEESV

Sequence of Protein kinase C delta type (Q05655 whole entry): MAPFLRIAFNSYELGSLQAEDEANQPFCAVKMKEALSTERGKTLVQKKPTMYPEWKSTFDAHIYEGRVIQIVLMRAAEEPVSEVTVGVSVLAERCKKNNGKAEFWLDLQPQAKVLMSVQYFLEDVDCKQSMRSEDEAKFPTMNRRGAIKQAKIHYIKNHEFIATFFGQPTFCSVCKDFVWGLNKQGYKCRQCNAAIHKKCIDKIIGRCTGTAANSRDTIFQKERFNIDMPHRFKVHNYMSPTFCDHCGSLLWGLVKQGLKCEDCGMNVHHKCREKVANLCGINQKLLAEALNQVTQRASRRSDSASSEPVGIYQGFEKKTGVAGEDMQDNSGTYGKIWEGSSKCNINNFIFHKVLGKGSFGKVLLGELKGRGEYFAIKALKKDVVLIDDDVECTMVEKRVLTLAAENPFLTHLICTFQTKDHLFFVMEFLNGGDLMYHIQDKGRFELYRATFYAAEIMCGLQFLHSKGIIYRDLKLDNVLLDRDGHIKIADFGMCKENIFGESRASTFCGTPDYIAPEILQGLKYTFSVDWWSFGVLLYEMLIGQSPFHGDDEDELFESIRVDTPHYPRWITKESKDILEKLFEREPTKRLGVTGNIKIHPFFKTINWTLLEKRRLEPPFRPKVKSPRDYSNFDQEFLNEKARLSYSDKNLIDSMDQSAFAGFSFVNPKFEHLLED
T1 sequence (P05771 whole entry): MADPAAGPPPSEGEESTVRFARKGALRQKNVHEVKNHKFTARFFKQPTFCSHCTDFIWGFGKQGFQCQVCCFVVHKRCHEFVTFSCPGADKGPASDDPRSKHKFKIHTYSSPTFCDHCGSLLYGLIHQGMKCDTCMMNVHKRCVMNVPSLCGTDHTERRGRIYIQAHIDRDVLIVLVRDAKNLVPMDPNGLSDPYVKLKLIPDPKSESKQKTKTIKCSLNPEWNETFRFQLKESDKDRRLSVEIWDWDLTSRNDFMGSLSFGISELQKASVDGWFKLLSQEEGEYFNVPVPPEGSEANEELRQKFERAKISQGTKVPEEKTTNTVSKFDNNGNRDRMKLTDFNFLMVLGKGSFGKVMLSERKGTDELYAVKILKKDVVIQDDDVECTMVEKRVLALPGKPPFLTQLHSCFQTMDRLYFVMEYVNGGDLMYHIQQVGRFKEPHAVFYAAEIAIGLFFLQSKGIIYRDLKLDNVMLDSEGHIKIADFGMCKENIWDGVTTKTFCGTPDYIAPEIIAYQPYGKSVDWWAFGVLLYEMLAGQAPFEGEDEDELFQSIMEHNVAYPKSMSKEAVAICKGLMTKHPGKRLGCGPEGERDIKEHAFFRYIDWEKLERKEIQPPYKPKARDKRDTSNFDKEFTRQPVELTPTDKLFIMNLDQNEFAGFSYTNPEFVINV
Sequence of Protein kinase C eta type (P24723 whole entry): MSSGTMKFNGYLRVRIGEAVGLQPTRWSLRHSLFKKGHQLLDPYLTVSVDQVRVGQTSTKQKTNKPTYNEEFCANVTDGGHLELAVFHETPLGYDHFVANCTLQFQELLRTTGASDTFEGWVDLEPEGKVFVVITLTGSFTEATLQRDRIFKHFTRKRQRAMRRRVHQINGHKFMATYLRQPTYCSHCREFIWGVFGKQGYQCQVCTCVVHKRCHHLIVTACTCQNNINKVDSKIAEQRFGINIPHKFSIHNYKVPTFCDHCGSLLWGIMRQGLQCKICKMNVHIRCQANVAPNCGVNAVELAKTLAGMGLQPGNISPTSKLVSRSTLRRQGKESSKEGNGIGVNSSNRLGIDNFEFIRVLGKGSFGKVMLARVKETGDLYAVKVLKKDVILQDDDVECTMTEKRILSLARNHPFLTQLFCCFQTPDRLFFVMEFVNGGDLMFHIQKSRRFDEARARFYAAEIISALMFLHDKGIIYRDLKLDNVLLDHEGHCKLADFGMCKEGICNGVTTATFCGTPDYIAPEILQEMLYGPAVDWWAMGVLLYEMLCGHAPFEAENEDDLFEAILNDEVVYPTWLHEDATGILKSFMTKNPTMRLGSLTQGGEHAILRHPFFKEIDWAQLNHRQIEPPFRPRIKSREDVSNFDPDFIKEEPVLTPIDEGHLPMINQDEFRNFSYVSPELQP

Row | Structure (SMILES) | IC50 [1] | IC50 [2] | IC50 [3] | IC50 [4] | IC50 [5] | IC50 [6] | IC50 [7] | IC50 [8] | IC50 [9]
1 | CC1(C)C2CCC1(C)C(OC(=O)c1cc(O)c(C(=O)c3c(O)cccc3C(=O)O)c(O)c1)C2NC(=O)c1ccc(O)cc1 (stereo not drawn) | 310 nM | 410 nM | 340 nM | 3600 nM | 26000 nM | 310 nM | 210 nM | 80 nM | > 50000 nM
2 | O=C(NC1CNC[C@@H]1OC(=O)c1cc(O)c(C(=O)c2c(O)cccc2C(=O)O)c(O)c1)c1ccc(O)cc1 (mixture of isomers) | 17 nM | 22 nM | 5 nM | 15 nM | 70 nM | 4 nM | 14 nM | 33 nM | > 150 nM
3 | O=C(NC1C2CCC(C2)C1OC(=O)c1cc(O)c(C(=O)c2c(O)cccc2C(=O)O)c(O)c1)c1ccc(O)cc1 (racemic) | 45 nM | 55 nM | 20 nM | 30 nM | 1900 nM | 20 nM | 35 nM | 30 nM | –
4 | O=C(NC1C2CCC(C2)C1OC(=O)c1cc(O)c(C(=O)c2c(O)cccc2C(=O)O)c(O)c1)c1ccc(O)cc1 (stereo in doubt) | 17000 nM | 24000 nM | 3500 nM | 1500 nM | > 50000 nM | 4500 nM | 10000 nM | 6900 nM | –
5 | O=C(NC1CN2CCC(CC2)C1OC(=O)c1cc(O)c(C(=O)c2c(O)cccc2C(=O)O)c(O)c1)c1ccc(O)cc1 (stereo in doubt; anti) | 26 nM | 415 nM | 112 nM | 170 nM | 2000 nM | 26 nM | 170 nM | 69 nM | –
6 | O=C(NC1C2CC(C3CCCC32)C1OC(=O)c1cc(O)c(C(=O)c2c(O)cccc2C(=O)O)c(O)c1)c1ccc(O)cc1 (stereo in doubt; anti) | 150 nM | 100 nM | 50 nM | 970 nM | 32000 nM | 50 nM | 50 nM | 30 nM | –
7 | O=C(NC1CN2CCC(CC2)C1OC(=O)c1cc(O)c(C(=O)c2c(O)cccc2C(=O)O)c(O)c1)c1ccc(O)cc1 (stereo in doubt; syn) | 6300 nM | 12000 nM | 1000 nM | 14000 nM | > 50000 nM | 490 nM | 4600 nM | 34000 nM | –

Further lines, results first:

Row | IC50 [1] | IC50 [2] | IC50 [3] | IC50 [4] | IC50 [5] | IC50 [6] | IC50 [7] | IC50 [8] | IC50 [9] | Structure (SMILES)
8 | 32 nM | 74 nM | 32 nM | – | – | 22 nM | 34 nM | 44 nM | 3500 nM | O=C(N[C@@H]1CNCCCC1OC(=O)c1cc(O)c(C(=O)c2c(O)cccc2C(=O)O)c(O)c1)c1ccc(O)cc1 (mixture of isomers)
9 | 40 nM | 40 nM | 1 nM | 50 nM | – | 1 nM | 10 nM | 50 nM | – | O=C(NC1CCC[C@@H]1OC(=O)c1cc(O)c(C(=O)c2c(O)cccc2C(=O)O)c(O)c1)c1ccc(O)cc1 (mixture of isomers)
10 | 4400 nM | 34000 nM | 5000 nM | 27000 nM | > 50000 nM | 2800 nM | 4600 nM | 14000 nM | > 50000 nM | CN1C2CCC1C(NC(=O)c1ccc(O)cc1)C(OC(=O)c1cc(O)c(C(=O)c3c(O)cccc3C(=O)O)c(O)c1)C2 (stereo in doubt; anti)
11 | 22000 nM | 35000 nM | 3800 nM | 49000 nM | > 50000 nM | 2500 nM | 16000 nM | 22000 nM | > 50000 nM | CN1C2CCC1C(NC(=O)c1ccc(O)cc1)C(OC(=O)c1cc(O)c(C(=O)c3c(O)cccc3C(=O)O)c(O)c1)C2 (stereo in doubt; syn)
12 | 3300 nM | 2700 nM | 2000 nM | 40000 nM | > 50000 nM | 1900 nM | 1600 nM | 2100 nM | – | O=C(NC1C2CC(C3CCCC32)C1OC(=O)c1cc(O)c(C(=O)c2c(O)cccc2C(=O)O)c(O)c1)c1ccc(O)cc1 (stereo in doubt; syn)
